Data published in a melting point compilation (Tetko et al.; mined from patent text by program, amines drawn as free bases though some values may be those of a salt).

Row | melting point | Structure (SMILES)
1 | 157 to 161 °C | C[C@@H]1CCCN1CCCOc1ccc(-c2cc(-c3ccccn3)c(=O)[nH]n2)cc1
2 | 254 to 256 °C | O=C(O)c1ccc(-c2ccc(O)c(F)c2)cc1
3 | 144 to 146 °C | S=C(Nc1ccc(Cl)c(Cl)c1)Nc1ncccc1OCc1ccccc1
4 | 128 to 129 °C | O=[N+]([O-])c1ccc(OCCN2CCN(c3cc(Cl)nnc3Cl)CC2)cc1
5 | 188 to 191 °C | Cc1cnc(NCCc2ccccn2)c(=O)n1NC(=O)CCc1cc(Cl)ccc1Cl
6 | 251 to 256 °C | CCn1ncc2c(O)c(CCc3ccccc3)c(C)nc21
7 | 209 °C | CC(=O)OCC(=O)C1C(C)CC2C3CC(Cl)C4=CC(=O)CCC4(C)C3C(O)CC21C (stereo not drawn)
8 | 199 to 200 °C | CNc1nc(N(C)C)nc2c1nnn2Cc1ccccc1F
9 | 173 to 178 °C | O=C(Nc1ccc(C2=CCN(C(=O)Nc3ccc(OCCO)cc3Cl)CC2)cc1)Nc1ccccc1F
10 | 158 to 161 °C | CC(C)(C)c1c(-c2ccc(S(C)(=O)=O)cc2)cnn(-c2ccc(F)c(F)c2)c1=O
11 | 210 °C | COc1cc2ncnc(N3CCc4ccc(Cl)cc43)c2cc1SC
12 | 73 to 75 °C | O=[N+]([O-])c1ccc2c(c1)CCCCN2
13 | 100 to 104 °C | CC(O)c1ccc(-c2ccc(N)cc2)o1 (stereo not drawn)
14 | 108 °C | CC(C)(C)OC(=O)C[C@H](NC(=O)CNC(=O)c1csc(NC(=O)NCc2ccccc2)n1)C(=O)NCc1ccccn1
15 | 90 to 92 °C | CC#CCOc1ccc(C=O)cc1OC
16 | > 200 °C | Cc1nc(N2CCc3nc(C)sc3CC2)c([N+](=O)[O-])c(=O)[nH]1
17 | 68 °C | C=C(CC(O)C(=O)OCC)CC(NC=O)(C(=O)OCC)C(=O)OCC (stereo not drawn)
18 | 206 to 208 °C | COC(=O)c1cccc(-c2c(C)c(NC(=O)CC(C)(C)C)c(C)c3c2OCC3c2ccc(C(C)C)cc2)c1 (stereo not drawn)
19 | 224 to 226 °C | Cc1oc2cc(N)ccc2c(=O)c1C
20 | 220 °C | Nc1nc(C(=Cc2cccc3ccccc23)C(=O)O)cs1
21 | 125 to 129 °C | CCOC(=O)c1cccc(NC(=O)C(COS(C)(=O)=O)NS(=O)(=O)c2ccc(Cl)cc2)c1 (racemic)
22 | 189 to 193 °C | O=C1c2ccccc2C(=O)C1(O)c1cc(F)ccc1O
23 | 150 to 151 °C | Cc1cc(Oc2ccc(Oc3ccc(N)c(C)c3)cc2)ccc1N
24 | 282 to 284 °C | Cc1c(-c2ccc(O)cc2)sc(C#N)c1-c1ccc(O)cc1

Row | melting point | Structure (SMILES)
25 | 75 °C | CC(=O)C(C)(C)Cc1cc(C(C)(C)C)c(O)c(C(C)(C)C)c1
26 | 110 to 112 °C | COc1ccc(CBr)cc1[N+](=O)[O-]
27 | 131 to 132 °C | Cc1ccc(CC2(OCc3ccccc3)CCN(CC3Cc4cc(O)ccc4C3O)CC2)cc1 (stereo not drawn)
28 | 137 to 142 °C | COc1cc(Br)c(/C=C/c2cc(/C=C/c3ccc4cc[nH]c4c3)[nH]n2)cc1O
29 | 105 to 106 °C | CC(C)(C)c1ccc(OCCC(=O)O)c(C(C)(C)C)c1
30 | 110 to 112 °C | ClCCCCCOc1ccc(C2=C(c3ccc(OC4CCCCO4)cc3)CCCc3cc(OC4CCCCO4)ccc32)cc1 (stereo not drawn)
31 | 201 to 203 °C | CCc1nc2c(N)nc(C)c(C)c2n1CCOCCNC(=O)NS(=O)(=O)c1ccccc1
32 | 112 to 114 °C | CCOC(=O)c1oc2ccc(Cl)cc2c1CBr
33 | 134 to 138 °C | O=C(NCC12CC3CC(CC(C3)C1)C2)c1cc(-c2ccccc2C(=O)O)ncc1Cl
34 | 108 to 110 °C | [N-]=[N+]=NCc1nc2ccccc2n1Cc1ccccc1
35 | 122 to 124 °C | O=C1NCC(CN2CCN(c3cccc(C(F)(F)F)c3)CC2)O1 (stereo not drawn)
36 | 261 to 263 °C | O=C(O)c1ccc(COCc2csc3nc(C(=O)NCc4cccc(C(F)(F)F)c4)[nH]c(=O)c23)cc1
37 | 271 to 275 °C | COc1ccccc1-n1c(=O)[nH]c2c(C(N)=O)nc(-c3cccc(C(F)(F)F)c3)nc21
38 | 104 to 106 °C | Cc1cc(Oc2ccc(C(F)(F)F)cc2[N+](=O)[O-])nn1C(=O)NC(C)(C)C
39 | 113 to 115 °C | CS(=O)(=O)Nc1ccccc1OC1CCCCC1
40 | 248 to 250 °C | CCNC(=O)n1cc(F)c(NC(=O)NCc2ccccc2OC)nc1=O
41 | 88 to 89 °C | Fc1ccc(C(F)(F)F)cc1-c1cccn2nc(Cl)nc12
42 | 132 to 133 °C | CCN(CC)CC1CCCCN1CCNC(=O)N1c2ccccc2NC(=O)c2csc(C)c21 (stereo not drawn)
43 | 177 to 178 °C | CCOC(=O)C1=C[C@@H](O)[C@H](NC(C)=O)[C@@H](NC(=O)OC(C)(C)C)C1
44 | 77 to 79 °C | O=C(O)[C@@H]1CCc2ccc(O)cc2O1
45 | 152 to 153 °C | CN1C(=O)c2cscc2N(Cc2ccccc2)c2ccccc21
46 | 53 to 54 °C | CC(=O)OCC1OC(OS(=O)(=S)c2ccccc2)C(OC(C)=O)C(OC(C)=O)C1OC(C)=O (stereo not drawn)
47 | 180 °C | CCC1Sc2cc(-c3cccc([N+](=O)[O-])c3)ccc2NC1=O (stereo not drawn)
48 | 94 to 98 °C | CCOC(=O)/C=C/c1cn(C)c2ccccc12

Row | melting point | Structure (SMILES)
49 | 201 °C | CC(C)(O)C(=O)N[C@H]1CC[C@H](CCN2CCN(c3nccc4c3CCO4)CC2)CC1
50 | 160 to 164 °C | O=C(O)C(=O)CC(=O)c1ccc(OCc2ccccc2)cc1OCc1ccccc1
51 | 290 to 295 °C | Cc1ccnc2c(-c3ccc(C)c4c(C)ccnc34)ccc(C)c12
52 | 99 to 100 °C | C[C@@H]1[C@H](c2ccccc2)OC(=O)N1C(=O)CCc1ccccc1
53 | 104 to 106 °C | CCNC(=O)ON(C(=O)CC)C(=O)NCC
54 | 82 to 83 °C | C=C(CCl)C(C(=O)OC(c1ccccc1)c1ccccc1)N1C(=O)C2N=C(Cc3ccccc3)OC21 (stereo not drawn)
55 | 269 °C | CCNC(=O)Nc1ccc(C#Cc2ccc(N3CC4CCC(C3)N4C)nn2)cc1
56 | 274 to 275 °C | CCc1c(-c2ccc(O)cc2)c2cc(C(C)=O)c3cc(O)cc1n32
57 | > 210 °C | O=C1CCN(c2ccc(C=C3SC(=O)NC3=O)cc2Br)CC1
58 | 226 to 228 °C | Cn1cc(C(=O)O)c(=O)c2cc3cc(F)c(N4CCNC(c5ccc(OCCO)cc5)C4)c(F)c3nc21 (racemic)
59 | 102 to 103 °C | O=C(CCc1ccc(NC(=O)C(F)(F)F)c([N+](=O)[O-])c1)N1CCCCC1
60 | 61 to 67 °C | CSCC[C@H](NC(=O)[C@H](CC(C)C)NC(=O)OCc1ccccc1)C(=O)CSC
61 | 174 to 176 °C | CCNCCCC(O)c1ccc(NS(C)(=O)=O)cc1 (stereo not drawn)
62 | 45 to 48 °C | CCOC(=O)Cc1ccc2c(c1)sc1ccc(C)cc12
63 | 147 to 148 °C | CN1C(=O)CC[C@]2(C)c3ccc(-c4cccc(F)c4F)cc3CC[C@@H]12
64 | 192 to 193 °C | O=S(=O)(NC1CCN(C2CCCCC2)CC1)c1ccc(Nc2ccnc3cc(Cl)ccc23)cc1
65 | 54 to 58 °C | Cc1c(Br)csc1C#N
66 | 78 to 79 °C | CC(C)(C)C=C/C=C/C(C)(C)C
67 | 192 °C | COc1ccc(N(C(=O)CN2C(=O)c3ccccc3C2=O)c2ccccc2)cc1
68 | 116 to 118 °C | O=C(O)CCCCCCC1(CCCCCCC(=O)O)C(=O)NC(=O)N1CCC(O)C1CCCCC1 (stereo not drawn)
69 | 162 to 164 °C | CC(C)c1cc(O)cc(C(C)C)c1NC(=O)CN1CCN(CCSc2nc3ccccc3o2)CC1
70 | 227 to 230 °C | O=c1[nH]c(=S)[nH]cc1Oc1cccnc1
71 | 124 to 126 °C | Cn1c(CNc2ccc(Oc3cccc(C(F)(F)F)c3)cc2)nc([N+](=O)[O-])c1C#N
72 | 234 to 236 °C | CN(C)CCOc1ccc(Cl)c(C(=O)O)c1Cl

Row | melting point | Structure (SMILES)
73 | > 350 °C | O=C1NC(=O)c2c1c(I)cc1[nH]c3ccc(O)cc3c21
74 | 130 °C | N#Cc1ncccc1C(=O)OCc1csc(-c2cccc(Cl)c2)n1
75 | 105 °C | O=C(O)CCC(c1ccccc1)c1ccccc1F (stereo not drawn)
76 | 168 to 170 °C | O=C(c1ccccc1)c1[nH]c2cc(Cl)ccc2c1NC(=O)N1CCOCC1
77 | 87 to 88 °C | CC(=O)c1ccc2c(c1)C(c1ncccc1C)CC(C)(C)O2 (stereo not drawn)
78 | 305 to 306 °C | N#Cc1ccc(-c2cnc(-c3ccc(C#N)cc3)nc2)cc1
79 | 136 to 138 °C | COc1cc2c3c(Br)cc(OC)c(OC)c3n(C(=O)c3ccc(C(C)(C)C)cc3)c2cc1OC
80 | 90 to 92 °C | O=C(c1ccccc1SSc1ccccc1C(=O)N1CCSCC1)N1CCSCC1
81 | 88 to 89 °C | CN(C)C1CCc2oc3ccc([N+](=O)[O-])cc3c2C1 (stereo not drawn)
82 | 157 to 158 °C | O=C1C(c2ccccc2)=C(c2ccccc2)C(=O)N1c1cccc(F)c1
83 | 218 to 220 °C | C[C@H]1COc2c(N3C[C@@H](N)[C@@H](C4CC4)C3)c(F)cc3c(=O)c(C(=O)O)cn1c23
84 | 137 to 139 °C | CCOC(=O)C1=C(c2ccccc2)N(c2ccccc2)C(=O)C1C(=O)c1ccccc1 (stereo not drawn)
85 | 88 to 89 °C | CN(C)C(=O)N(N)c1ccc(F)c(Cl)c1
86 | 130 to 135 °C | N=C(N)NCCc1nccs1
87 | 289 to 291 °C | CCn1cc(C(=O)O)c(=O)c2cc([N+](=O)[O-])c(-c3cc(C)nc(C)c3)cc21
88 | 131 to 132 °C | O=C(O)CCc1cn(Cc2cccc(C(=O)Nc3cccnc3)c2)nc1-c1ccccc1
89 | 267 to 268 °C | C[C@@H](NC(=O)c1c[nH]c2ncc(-c3nn(C)c4cc(Cl)cc(F)c34)nc12)C(=O)N1CC(C#N)C1
90 | 211 °C | O=C(CC1CCOCC1)Nc1cccc2nc(N[C@@H]3CCc4ccccc43)ccc12
91 | 76 to 77 °C | CCOC(=O)c1[nH]c(C)c(CC)c1CC
92 | 146 to 147 °C | COc1ccc2[nH]c(CC(C)C)c(C=O)c2c1
93 | 149 °C | CC1=CC(c2cccc([N+](=O)[O-])c2)C(C(=O)O)=NN1 (stereo not drawn)
94 | 133 to 134 °C | CCOC(=O)c1cn(Cc2ccc(OCc3nc(-c4ccco4)oc3C)cc2)nc1OCc1ccc(OCc2nc(-c3ccco3)oc2C)cc1

Row | Structure (SMILES) | melting point
95 | CN1CCc2c(-c3ccc(F)cc3)ccc([N+](=O)[O-])c2C1 | 140 to 143 °C
96 | O[C@H](COc1cccc2[nH]ccc12)CN1CC=C(c2c[nH]c3c(Cl)cccc23)CC1 | 85 to 90 °C
97 | CN(C)CCc1ccc(O)c2[nH]nnc12 | 207 to 211 °C
98 | CCN1c2ncccc2C(=NOC)Nc2c(C)cc(C)nc21 | 164 to 166 °C
